Measurements published in paper PMC10247784, “Physiological activation of human and mouse bitter taste receptors by bile acids” (Communications Biology, 2023).
Several values for one entry are separate records, joined by “and”; a condition that tells them apart may be missing. Identical values can stand only once.

Target: T1, human TAS2R4 (Homo sapiens, UniProt Q9NYW5)
T1 construct: expressed in transfected cells; host or cells: HEK293T-Gα16gust44
T1 sequence (Q9NYW5 1-299): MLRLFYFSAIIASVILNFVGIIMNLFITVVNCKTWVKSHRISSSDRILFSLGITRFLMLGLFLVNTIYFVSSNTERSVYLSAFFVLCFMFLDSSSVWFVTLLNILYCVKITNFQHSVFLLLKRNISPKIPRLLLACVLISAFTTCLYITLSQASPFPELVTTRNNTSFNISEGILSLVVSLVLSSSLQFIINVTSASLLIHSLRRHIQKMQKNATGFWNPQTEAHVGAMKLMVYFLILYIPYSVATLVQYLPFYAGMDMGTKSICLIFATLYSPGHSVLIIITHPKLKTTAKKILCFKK
Assay: Calcium imaging assay (FLIPR), HEK293T-Gα16gust44 cells transfected with human TAS2R4
Type: cell-based
Outline: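 Fluo-4 calcium responses; ΔF/F corrected for mock transfection and buffer control; triplicate independent dose-response runs; p < 0.01 threshold.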

C[C@H](CCC(=O)O)[C@H]1CC[C@H]2[C@@H]3[C@@H](O)C[C@@H]4C[C@H](O)CC[C@]4(C)[C@H]3CC[C@]12C [Ursodeoxycholic Acid, ursodeoxycholic acid]
Efficacy = maximal amplitude (ΔF/F) (TAS2R4, bile acids, mean): 0.07236 | Efficacy (maximal amplitude ΔF/F), individual data points (TAS2R4, bile acids, single replicates, listed as UDCA): 0.07954 and 0.05089 and 0.08665 | Δ F/F (TAS2R4, conc. 0,01 mM): 0.05163 | Δ F/F (TAS2R4, conc. 0,03 mM): 0.07236 | Δ F/F (TAS2R4, conc. 0,00003 mM): 0.00102 | Δ F/F (TAS2R4, conc. 0,0001 mM): 0.006537 | Δ F/F (TAS2R4, conc. 0,0003 mM): -0.0004307 | Δ F/F (TAS2R4, conc. 0,001 mM): 0.008217 | Δ F/F (TAS2R4, conc. 0,003 mM): 0.01726 | RLU, fluorescence trace (Time (s) 0): 0 RLU | RLU, fluorescence trace (Time (s) 2): -16.0588 RLU | RLU, fluorescence trace (Time (s) 4): 1.8572 RLU | RLU, fluorescence trace (Time (s) 6): -24.0432 RLU | RLU, fluorescence trace (Time (s) 8): -15.0627 RLU | RLU, fluorescence trace (Time (s) 12): -11.1029 RLU | RLU, fluorescence trace (Time (s) 14): -16.031 RLU | RLU, fluorescence trace (Time (s) 16): -22.0279 RLU | RLU, fluorescence trace (Time (s) 18): -16.0557 RLU | RLU, fluorescence trace (Time (s) 18.766 (TCA, TLCA: 18.782)): -31 RLU | RLU, fluorescence trace (Time (s) 20.781 (TCA, TLCA: 20.782)): -77.5296 RLU | RLU, fluorescence trace (Time (s) 22.781 (TCA, TLCA: 22.782)): -20.8274 RLU | RLU, fluorescence trace (Time (s) 24.781 (TCA, TLCA: 24.782)): 13.5346 RLU | RLU, fluorescence trace (Time (s) 26.781 (TCA, TLCA: 26.782)): 47.9642 RLU | RLU, fluorescence trace (Time (s) 28.781 (TCA, TLCA: 28.782)): 73.9776 RLU | RLU, fluorescence trace (Time (s) 30.781 (TCA, TLCA: 30.782)): 141.824 RLU | RLU, fluorescence trace (Time (s) 32.781 (TCA, TLCA: 32.782)): 170.961 RLU | RLU, fluorescence trace (Time (s) 34.781 (TCA, TLCA: 34.782)): 211.304 RLU | RLU, fluorescence trace (Time (s) 36.781 (TCA, TLCA: 36.782)): 286.431 RLU | RLU, fluorescence trace (Time (s) 38.781 (TCA, TLCA: 38.782)): 316.3 RLU | RLU, fluorescence trace (Time (s) 40.781 (TCA, TLCA: 40.782)): 327.594 RLU | RLU, fluorescence trace (Time (s) 42.781 (TCA, TLCA: 42.782)): 352.031 RLU | RLU, fluorescence trace (Time (s) 44.781 (TCA, TLCA: 44.782)): 380.127 RLU | RLU, fluorescence trace (Time (s) 46.781 (TCA, TLCA: 46.782)): 405.893 RLU | RLU, fluorescence trace (Time (s) 48.781 (TCA, TLCA: 48.782)): 396.948 RLU | RLU, fluorescence trace (Time (s) 50.781 (TCA, TLCA: 50.782)): 411.019 RLU | RLU, fluorescence trace (Time (s) 52.781 (TCA, TLCA: 52.782)): 398.089 RLU | RLU, fluorescence trace (Time (s) 54.781 (TCA, TLCA: 54.782)): 413.206 RLU | RLU, fluorescence trace (Time (s) 56.781 (TCA, TLCA: 56.782)): 434.735 RLU | RLU, fluorescence trace (Time (s) 58.781 (TCA, TLCA: 58.782)): 418.956 RLU | RLU, fluorescence trace (Time (s) 60.781 (TCA, TLCA: 60.782)): 389 RLU | RLU, fluorescence trace (Time (s) 62.781 (TCA, TLCA: 62.782)): 407.272 RLU | RLU, fluorescence trace (Time (s) 64.781 (TCA, TLCA: 64.782)): 410.187 RLU | RLU, fluorescence trace (Time (s) 66.781 (TCA, TLCA: 66.782)): 395 RLU | RLU, fluorescence trace (Time (s) 68.781 (TCA, TLCA: 68.782)): 396.708 RLU | RLU, fluorescence trace (Time (s) 70.781 (TCA, TLCA: 70.782)): 394.232 RLU | RLU, fluorescence trace (Time (s) 72.781 (TCA, TLCA: 72.782)): 389.174 RLU | RLU, fluorescence trace (Time (s) 74.781 (TCA, TLCA: 74.782)): 367.247 RLU | RLU, fluorescence trace (Time (s) 76.781 (TCA, TLCA: 76.782)): 368.083 RLU | RLU, fluorescence trace (Time (s) 78.781 (TCA, TLCA: 78.782)): 368.91 RLU | RLU, fluorescence trace (Time (s) 80.781 (TCA, TLCA: 80.782)): 354 RLU | RLU, fluorescence trace (Time (s) 82.781 (TCA, TLCA: 82.782)): 345.234 RLU | RLU, fluorescence trace (Time (s) 84.781 (TCA, TLCA: 84.782)): 349.472 RLU | RLU, fluorescence trace (Time (s) 86.781 (TCA, TLCA: 86.782)): 337.61 RLU | RLU, fluorescence trace (Time (s) 88.781 (TCA, TLCA: 88.782)): 322.366 RLU | RLU, fluorescence trace (Time (s) 90.781 (TCA, TLCA: 90.782)): 310.929 RLU | RLU, fluorescence trace (Time (s) 92.781 (TCA, TLCA: 92.782)): 320.728 RLU | RLU, fluorescence trace (Time (s) 94.781 (TCA, TLCA: 94.782)): 299.044 RLU | RLU, fluorescence trace (Time (s) 96.781 (TCA, TLCA: 96.782)): 305.557 RLU | RLU, fluorescence trace (Time (s) 98.781 (TCA, TLCA: 98.782)): 298.819 RLU | RLU, fluorescence trace (Time (s) 100.781 (TCA, TLCA: 100.782)): 293.739 RLU | RLU, fluorescence trace (Time (s) 102.781 (TCA, TLCA: 102.782)): 282.259 RLU | RLU, fluorescence trace (Time (s) 104.781 (TCA, TLCA: 104.782)): 266.754 RLU | RLU, fluorescence trace (Time (s) 106.781 (TCA, TLCA: 106.782)): 276.382 RLU | RLU, fluorescence trace (Time (s) 108.781 (TCA, TLCA: 108.782)): 259.159 RLU | RLU, fluorescence trace (Time (s) 110.781 (TCA, TLCA: 110.782)): 276.445 RLU | RLU, fluorescence trace (Time (s) 112.781 (TCA, TLCA: 112.782)): 267.37 RLU | RLU, fluorescence trace (Time (s) 114.781 (TCA, TLCA: 114.782)): 253.353 RLU | RLU, fluorescence trace (Time (s) 116.781 (TCA, TLCA: 116.782)): 251.234 RLU | RLU, fluorescence trace (Time (s) 118.781 (TCA, TLCA: 118.782)): 253.766 RLU | RLU, fluorescence trace (Time (s) 120.781 (TCA, TLCA: 120.782)): 230.621 RLU | RLU, fluorescence trace (Time (s) 122.781 (TCA, TLCA: 122.782)): 238.721 RLU | RLU, fluorescence trace (Time (s) 124.781 (TCA, TLCA: 124.782)): 218.638 RLU | RLU, fluorescence trace (Time (s) 126.781 (TCA, TLCA: 126.782)): 215.286 RLU | RLU, fluorescence trace (Time (s) 128.781 (TCA, TLCA: 128.782)): 226.16 RLU | RLU, fluorescence trace (Time (s) 130.781 (TCA, TLCA: 130.782)): 229.593 RLU | RLU, fluorescence trace (Time (s) 132.781 (TCA, TLCA: 132.782)): 216.307 RLU | RLU, fluorescence trace (Time (s) 134.781 (TCA, TLCA: 134.782)): 209.298 RLU | RLU, fluorescence trace (Time (s) 136.781 (TCA, TLCA: 136.782)): 214.712 RLU | RLU, fluorescence trace (Time (s) 137.547): 211.548 RLU | RLU, fluorescence trace (Time (s) 143.547): 195.123 RLU | RLU, fluorescence trace (Time (s) 149.547): 191.876 RLU | RLU, fluorescence trace (Time (s) 155.547): 182.53 RLU | RLU, fluorescence trace (Time (s) 161.547): 172.093 RLU | RLU, fluorescence trace (Time (s) 167.547): 173.823 RLU | RLU, fluorescence trace (Time (s) 173.547): 178.999 RLU | RLU, fluorescence trace (Time (s) 179.547): 149.456 RLU | RLU, fluorescence trace (Time (s) 185.547): 128.186 RLU | RLU, fluorescence trace (Time (s) 191.547): 150.92 RLU | RLU, fluorescence trace (Time (s) 197.547): 155.041 RLU | RLU, fluorescence trace (Time (s) 203.547): 152.046 RLU | RLU, fluorescence trace (Time (s) 209.547): 155.822 RLU | RLU, fluorescence trace (Time (s) 215.547): 146.722 RLU | RLU, fluorescence trace (Time (s) 221.547): 144.396 RLU | RLU, fluorescence trace (Time (s) 227.547): 187.605 RLU | RLU, fluorescence trace (Time (s) 233.547): 160.672 RLU | RLU, fluorescence trace (Time (s) 239.547): 166.203 RLU | RLU, fluorescence trace (Time (s) 245.547): 147.048 RLU | RLU, fluorescence trace (Time (s) 293.547): 162.322 RLU | RLU, fluorescence trace (Time (s) 299.547): 130.446 RLU | RLU, fluorescence trace (Time (s) 305.547): 132.691 RLU | RLU, fluorescence trace (Time (s) 311.547): 138.907 RLU | RLU, fluorescence trace (Time (s) 317.547): 111.452 RLU | RLU, fluorescence trace (Time (s) 323.547): 135.942 RLU | RLU, fluorescence trace (Time (s) 329.547): 131.935 RLU | RLU, fluorescence trace (Time (s) 335.547): 149.888 RLU | RLU, fluorescence trace (Time (s) 341.547): 132.356 RLU | RLU, fluorescence trace (Time (s) 347.547): 117.981 RLU | RLU, fluorescence trace (Time (s) 353.547): 135.981 RLU | RLU, fluorescence trace (Time (s) 359.547): 144.823 RLU | Activation threshold concentration TAS2R4 (lowest concentration with significantly increased fluorescence vs empty vector (p < 0.01)): 3 µM
